In US10660933B2, “Compositions and methods for inhibition of bacterial infections in human endocervix” (priority 2015, dated 2020):

Columns and labels:
[1] = test system: polarized T84 cells; test: Exfoliation of polarized T84 cells treated with inhibitors alone, without Ng; format: cell-based, human; settings: no Ng inoculation, 6 h
Procedure: Polarized T84 cells were treated with inhibitors for 6 h, fixed, stained to visualize the cell nuclei, and imaged by 3D-CFM. The percentage of cell moving above the epithelial monolayer (dash lines) was determined from three independent experiments. Scale bar, 5 μm. *p≤0.05.
Immunofluorescence analysis of polarized epithelial cells. Cells were pretreated with or without NMII kinase inhibitors, Y27632 (10 μM, EMD Millipore), ML-7 (10 μM, EMD Millipore) and PIK (100 μM) or Ca2+ inhibitors, 2APB (10 μM, EMD Millipore) and BAPTA (50 μM, EMD Millipore) for 1 h, and incubated with Ng in the presence or absence of the inhibitors for 6 h. Cell were washed and fixed with 4% paraformaldehyde, permeabilized with 1% Triton X100, and stained with anti-E-cadherin (BD Bioscience), anti-pMLC (Cell Signaling Technology, Carlsbad, Calif.), anti-Ng antibodies, and DAPI for nuclei. Cells were analyzed by CFM. Images were acquired as Z-series of 0.37 μm slices, and 3D composites obtained. Epithelial exfoliation will be quantified using xz images as described for the tissue explants. The distribution of E-cadherin and pMLC was quantitatively analyzed by measuring the FIR at the apical junctional to the cytoplasmic area (from xy images) or at the apical to lateral surface area (from xz images) in individual cells.

[2] = test system: E-cadherin; test: E-cadherin distribution at the apical junction of Ng-inoculated polarized T84 cells; format: cell-based, human; settings: polarized T84, Ng 6 h; ML-7 10 μM, 2APB 10 μM, Y27632 10 μM
From the text: Ng-induced junction disassembly requires NMII activation and Ca^2+ flux but is suppressed by Opa. The linkage between the efficiency of Ng penetration into the epithelium with Ng induced epithelial exfoliation and apical junction disruption shown here and previously implicate Ng induced junction disruption as an underlying cause of epithelial exfoliation. To test this hypothesis, we determined whether Opa expression and the MLCK and Ca^2+ inhibitors, which all inhibited Ng induced epithelial exfoliation, also prevent Ng from disrupting the apical junction. The structural integrity of the apical junction was evaluated by analyzing the distribution of E-cadherin using immunofluorescence (IFM) and 3D-CFM and quantifying the fluorescence intensity ratio (FIR) of E-cadherin at the cytoplasm to that at the apical junction. In polarized T84 cells that were not inoculated with Ng, E-cadherin staining was primarily localized at the apical junction (FIG. 4A, top panels). […]
Immunofluorescence analysis of polarized epithelial cells. […] Cells were analyzed by CFM. […] Epithelial exfoliation will be quantified using xz images as described for the tissue explants. The distribution of E-cadherin and pMLC was quantitatively analyzed by measuring the FIR at the apical junctional to the cytoplasmic area (from xy images) or at the apical to lateral surface area (from xz images) in individual cells.

[3] = test system: human endocervical tissue explants; test: Ng-induced epithelial exfoliation of human endocervical tissue explants (3D-CFM); format: cell-based; settings: MS11ΔOpa, 24 h; ML-7 10 μM, PIK 100 μM
Procedure: (§1) Human endocervical tissue explants. The tissue explants were cultured as previously described. Endocervical tissues were obtained from patients undergoing voluntary hysterectomies and received within 24 h post-surgery. Samples were cut into ˜2.5 cm (L)×0.6 cm (W)×0.3 cm (H) pieces, incubated in CMRL-1066 (GIBCO, Gaithersburg, Md.) plus antibiotics for 24 h, and then switched to antibiotic-free media for 24 h.
(§2) Immunofluorescence analysis of human endocervical tissue explants. […] The tissue was fixed, embedded in gelatin, cryopreserved, sectioned crossing the apical and basolateral surfaces of the epithelium, stained for ZO1 (BD Bioscience), pMLC (Cell Signaling Technology, Beverly, Mass.), and Ng (51) by specific antibodies, and nuclei by DAPI (Life Technologies, Carlsbad, Calif.), and analyzed using CFM (Zeiss LSM 710, Carl Zeiss Microscopy LLC, Oberkochen, Germany). […]
(§3) To quantify epithelial exfoliation, the number of Ng associated cells localized on the top of the epithelial monolayer (exfoliated) and the total number of Ng associated epithelial cells was counted by visual inspection in each randomly acquired image, to determine the percentage of exfoliated cells. […] To quantify the redistribution of pMLC, the fluorescence intensity ratios (FIR) of pMLC staining at the apical to lateral in individual epithelial cells were determined using average FI as previously described.

[4] = test system: ZO1; test: ZO1 distribution and cell morphology in Ng-infected human endocervical tissue explants; format: cell-based; settings: MS11ΔOpa 24 h, ML-7 10 μM
From the text: We determined if MS11ΔOpa can induce the disruption of the apical junction in human endocervical tissue. Sections of uninfected and infected tissue explants were stained for the junctional protein ZO1, Ng, and DNA and analyzed by 3D-CFM (FIG. 4G). We quantified junction disruption by determining the percentage of Ng associated epithelial cells that lost continuous apical staining of ZO1, using 3D reconstituted confocal images (FIG. 4G, right panels). […] In contrast to the recruitment of ZO1 to epithelial cells neighboring exfoliating cells in uninfected monolayers, no accumulation of ZO1 staining was observed around Ng infected exfoliating cells (FIG. 4I, arrows). […] Treatment with the MLCK inhibitor ML-7 restored both the morphology (FIG. 4G left panels) and apical distribution of ZO1 (FIG. 4H).
as §2

[5] = test system: Neisseria gonorrhoeae MS11ΔOpa; test: Ng subepithelial penetration in human endocervical tissue explants (3D-CFM); format: cell-based; settings: MS11ΔOpa, 24 h; ML-7 10 μM or PIK 100 μM; 27% without inhibitor
Procedure: as §1
Immunofluorescence analysis of human endocervical tissue explants. Individual endocervical tissue pieces were incubated with Ng at a MOI of ˜10 (based on the average number of endocervical epithelial cells in endocervical tissue pieces) in the presence or absence of the MLCK inhibitor ML-7 (10 μM, EMD Millipore) and PIK (100 μM) (54) on transwells for 24 h. Unassociated Ng were removed by extensive washes at 6 and 12 h. The tissue was fixed, embedded in gelatin, cryopreserved, sectioned crossing the apical and basolateral surfaces of the epithelium, stained for ZO1 (BD Bioscience), pMLC (Cell Signaling Technology, Beverly, Mass.), and Ng (51) by specific antibodies, and nuclei by DAPI (Life Technologies, Carlsbad, Calif.), and analyzed using CFM (Zeiss LSM 710, Carl Zeiss Microscopy LLC, Oberkochen, Germany). […]
as §3, with “cells. To estimate the level of Ng penetration into the subepithelium, the number of non-exfoliated epithelial cells (in clearly visible epithelial monolayers) with basal Ng staining and the total number of Ng associated epithelial cells were visually counted to calculate the percentage of infected epithelial cells with Ng penetration into the basolateral side.” for “cells.”

NCCOB(c1ccccc1)c1ccccc1 [2APB]
epithelial exfoliation with inhibitors alone [1]: did not affect epithelial exfoliation
punctuate cytoplasmic staining and cytoplasm:junction FIR of E-cadherin [2]: decreased the punctuate staining of E-cadherin in the cytoplasm and the cytoplasm:junction FIR of E-cadherin to or below the control level

O=S(=O)(c1cccc2c(I)cccc12)N1CCCNCC1 [ML-7]
epithelial exfoliation with inhibitors alone [1]: did not affect epithelial exfoliation
epithelial exfoliation of human endocervical tissue explants [3]: decreased the epithelial exfoliation of human endocervical tissue explants to the basal level
apical distribution of ZO1 [4]: restored
morphology of endocervical epithelial cells [4]: restored
percentage of epithelial cells with basally associated Ng [5]: 7.1%
punctuate cytoplasmic staining and cytoplasm:junction FIR of E-cadherin [2]: decreased the punctuate staining of E-cadherin in the cytoplasm and the cytoplasm:junction FIR of E-cadherin to or below the control level
